Laboratory results: patent US7825256B2, “Inducible nitric oxide synthase dimerization inhibitors” (Kalypsys, Inc., priority 2004, dated 2010)

target: T1, hiNOS (Homo sapiens, UniProt P35228); experiment: DAN assay, hiNOS expressed in transiently transfected HEK293 cells; format: cell-based; details: HEK293 cells transiently transfected with hiNOS
T1 construct: expressed in transfected cells; host or cells: HEK293
Source text: The source of nitric oxide synthase (NOS) enzyme can be generated in several ways including induction of endogenous iNOS using cytokines and/or lipopolysaccharide (LPS) in various cell types known in the art. Alternatively, the gene encoding the enzyme can be cloned and the enzyme can be generated in cells via heterologous expression from a transient or stable expression plasmid with suitable features for protein expression as are known in the art. Enzymatic activity (nitric oxide production) is calcium independent for iNOS, while the constitutive NOS isoforms, nNOS and eNOS, become active with the addition of various cofactors added to cellular media or extract as are well known in the art. Enzymes specified in Table 1 were expressed in HEK293 cells transiently transfected with the indicated NOS isoform.
A major metabolic pathway for nitric oxide is to nitrate and nitrite, which are stable metabolites within tissue culture, tissue, plasma, and urine (S Moncada, A Higgs, N Eng J Med 329, 2002 (1993)).
The level of nitrate or nitrite in the specimen can be quantified by any method known in the art which provides adequate sensitivity and reproducibility. A variety of protocols have also been described for detecting and quantifying nitrite and nitrate levels in biological fluids by ion chromatography (e.g., S A Everett et al., J. Chromatogr. 706, 437 (1995); J M Monaghan et al., J. Chromatogr. 770, 143 (1997)), high-performance liquid chromatography (e.g., M Kelm et al., Cardiovasc. Res. 41, 765 (1999)), and capillary electrophoresis (M A Friedberg et al., J. Chromatogr. 781, 491 (1997)). For example, 2,3-diaminonaphthalene reacts with the nitrosonium cation that forms spontaneously from NO to form the fluorescent product […]. Using 2,3-diaminonaphthalene (“DAN”), researchers have developed a rapid, quantitative fluorometric assay that can detect from 10 nM to 10 μM nitrite and is compatible with a multi-well microplate format. […] DAN reacts with nitrite ion and gives fluorescent […] (M C Carré et al., Analysis 27, 835-838 (1999)). Table 1 provides the test results of various compounds of the subject invention using the DAN assay.
A specimen can be processed prior to determination of nitrate or nitrite as required by the quantification method, or in order to improve the results, or for the convenience of the investigator. For example, processing can involve centrifuging, filtering, or homogenizing the sample. If the sample is whole blood, the blood can be centrifuged to remove cells and the nitrate or nitrite assay performed on the plasma or serum fraction. If the sample is tissue, the tissue can be dispersed or homogenized by any method known in the art prior to determination of nitrate or nitrite. It may be preferable to remove cells and other debris by centrifugation or another method and to determine the nitrate or nitrite level using only the fluid portion of the sample, or the extracellular fluid fraction of the sample. The sample can also be preserved for later determination, for example by freezing of urine or plasma samples. When appropriate, additives may be introduced into the specimen to preserve or improve its characteristics for use in the nitrate or nitrite assay.
The “level” of nitrate, nitrite, or other NO-related product usually refers to the concentration (in moles per liter, micromoles per liter, or other suitable units) of nitrate or nitrite in the specimen, or in the fluid portion of the specimen. However, other units of measure can also be used to express the level of nitrate or nitrite. For example, an absolute amount (in micrograms, milligrams, nanomoles, moles, or other suitable units) can be used, particularly if the amount refers back to a constant amount (e.g., grams, kilograms, milliliters, liters, or other suitable units) of the specimens under consideration. A number of commercially available kits can be used.

| Structure (SMILES) | EC50 |
| --- | --- |
| CCCN(CCCNCc1ccc2c(c1)OCO2)c1nc(-n2ccnc2)ns1 [Example 31, N′-Benzo[1,3]dioxol-5-ylmethyl-N-(3-imidazol-1-yl-[1,2,4]thiadiazol-5-yl)-N-propyl-propane-1,3-diamine] | < 1 µM |
| CC(NCCNCc1ccc2c(c1)OCO2)c1nc(-n2ccnc2)ns1 (stereo not drawn) [Example 64, N-Benzo[1,3]dioxol-5-ylmethyl-N′-[1-(3-imidazol-1-yl-[1,2,4]thiadiazol-5-yl)-ethyl]-ethane-1,2-diamine] | < 1 µM |
| c1cn(-c2nsc(N(CCCNCc3ccc4c(c3)OCO4)C3CC3)n2)cn1 [Example 32, N′-Benzo[1,3]dioxol-5-ylmethyl-N-cyclopropyl-N-(3-imidazol-1-yl-[1,2,4]thiadiazol-5-yl)-propane-1,3-diamine] | < 1 µM |
| Cc1cc(C(C)(C)C(=O)NCCNCc2ccc3c(c2)OCO3)nc(-n2ccnc2)n1 [Example 66, N-{2-[(Benzo[1,3]dioxol-5-ylmethyl)-amino]-ethyl}-2-(2-imidazol-1-yl-6-methyl-pyrimidin-4-yl)-isobutyramide] | < 1 µM |
| COc1ccc(CNCCCN(C)c2nc(-n3ccnc3)ns2)cc1 [Example 8, N-(3-Imidazol-1-yl-[1,2,4]thiadiazol-5-yl)-N′-(4-methoxy-benzyl)-N-methyl-propane-1,3-diamine] | < 1 µM |
| c1cn(-c2nsc(N3CCN(Cc4ccc5c(c4)OCO5)CC3)n2)cn1 [Example 33, 1-Benzo[1,3]dioxol-5-ylmethyl-4-(3-imidazol-1-yl-[1,2,4]thiadiazo-5-yl)-piperazine] | < 50 µM |
| CN(CCCNCc1ccc(F)c(F)c1)c1nc(-n2ccnc2)ns1 [Example 9, N′-(3,4-Difluro-benzyl)-N-(3-imidazol-1-yl-[1,2,4]thiadiazol-5-yl)-N-methyl-propane-1,3-diamine] | > 50 µM |
| CNNC(=N)CN(CCCNCc1ccc2c(c1)OCO2)c1nc(-n2ccnc2)ns1 [Example 62, 2-[{3-[(Benzo[1,3]dioxol-5-ylmethyl)-amino]-propyl}-(3-imidazol-1-yl-[1,2,4]thiadiazol-5-yl)-amino]-acetamidine N′-methyl-hydrazide] | < 1 µM |
| c1cn(-c2nsc(N(CCCNCc3ccc4c(c3)OCO4)Cc3nnn[nH]3)n2)cn1 [Example 61, N′-Benzo[1,3]dioxol-5-ylmethyl-N-(3-imidazol-1-yl-[1,2,4]thiadiazol-5-yl)-N-(1H-tetrazol-5-ylmethyl)-propane-1,3-diamine] | < 1 µM |
| CN(CCCNCc1ccc2[nH]ccc2c1)c1nc(-n2ccnc2)ns1 [Example 18, N-(3-Imidazol-1-yl-[1,2,4]thiadiazol-5-yl)-N′-(1H-indol-5-ylmethyl)-N-methyl-propane-1,3-diamine] | > 50 µM |
| Cc1cc(C2CCCN2CCNCc2ccc3c(c2)OCO3)nc(-n2ccnc2)n1 (stereo not drawn) [Example 39, Benzo[1,3]dioxol-5-ylmethyl-{2-[2-(2-imidazol-1-yl-6-methyl-pyrimidin-4-yl)-pyrrolidin-1-yl]-ethyl}-amine] | < 1 µM |
| CN(CCCCNCc1ccc2c(c1)OCO2)c1nc(-n2ccnc2)ns1 [Example 48, N′-Benzo[1,3]dioxol-5-ylmethyl-N-(3-imidazol-1-yl-[1,2,4]thiadiazol-5-yl)-N-methyl-butane-1,4-diamine] | < 1 µM |
| COc1ccc(CNCCCN(C)c2nc(-n3ccnc3)ns2)cc1OC [Example 22, N′-(3,4-Dimethoxy-benzyl)-N-(3-imidazol-1-yl-[1,2,4]thiadiazol-5-yl)-N-methyl-propane-1,3-diamine] | > 50 µM |
| Cc1cc(C(C)NCCOCc2ccc3c(c2)OCO3)nc(-n2ccnc2)n1 (stereo not drawn) [Example 43, [2-(Benzo[1,3]dioxol-5-ylmethoxy)-ethyl]-[1-(2-imidazol-1-yl-6-methyl-pyrimidin-4-yl)-ethyl]-amine] | < 1 µM |

Next, values leading:

| EC50 | Structure (SMILES) |
| --- | --- |
| < 1 µM | Cc1cc(C2C(c3nccs3)CCN2CCNCc2ccc3c(c2)OCO3)nc(-n2ccnc2)n1 (stereo not drawn) [Example 140, Benzo[1,3]dioxol-5-ylmethyl-{2-[2-(2-imidazol-1-yl-6-methyl-pyrimidin-4-yl)-3-thiazol-2-yl-pyrrolidin-1-yl]-ethyl}-amine] |
| < 1 µM | CN(CCCN(C)c1nc(-n2ccnc2)ns1)CCc1ccc2c(c1)OCCO2 [Example 86, N-[2-(2,3-Dihydro-benzo[1,4]dioxin-6-yl)-ethyl]-N′-(3-imidazol-1-yl-[1,2,4]thiadiazol-5-yl)-N,N′-dimethyl-propane-1,3-diamine] |
| < 1 µM | Cn1cnc(CN(CCCNCc2ccc3c(c2)OCO3)c2nc(-n3ccnc3)ns2)c1 [Example 106, N′-Benzo[1,3]dioxol-5-ylmethyl-N-(3-imidazol-1-yl-[1,2,4]thiadiazol-5-yl)-N-(1-methyl-1H-imidazol-4-ylmethyl)-propane-1,3-diamine] |
| > 50 µM | CN(CCCNCc1ccc2c(c1)OCO2)c1nc(-n2cncn2)ns1 [Example 145, N′-Benzo[1,3]dioxol-5-ylmethyl-N-methyl-N-(3-[1,2,4]triazol-1-yl-[1,2,4]thiadiazol-5-yl)-propane-1,3-diamine] |
| < 1 µM | Cc1cc(C2C(C(=O)NCCc3ccc4c(c3)OCCO4)CCN2C)nc(-n2ccnc2)n1 (stereo not drawn) [Example 124, 2-(2-Imidazol-1-yl-6-methyl-pyrimidin-4-yl)-1-methyl-pyrrolidine-3-carboxylic acid [2-(2,3-dihydro-benzo[1,4]dioxin-6-yl)-ethyl]-amide] |
| < 1 µM | CN(CCCNCCc1ccc2c(c1)OCCO2)c1nc(-n2ccnc2)ns1 [Example 85, N′-[2-(2,3-Dihydro-benzo[1,4]dioxin-6-yl)-ethyl]-N-(3-imidazol-1-yl-[1,2,4]thiadiazol-5-yl)-N-methyl-propane-1,3-diamine] |
| < 1 µM | Cc1cc(C(C)(C)CNC(=O)NCc2ccc3c(c2)OCO3)nc(-n2ccnc2)n1 [Example 144, 1-Benzo[1,3]dioxol-5-ylmethyl-3-[2-(2-imidazol-1-yl-6-methyl-pyrimidin-4-yl)-2-methyl-propyl]-urea] |
| < 1 µM | CCOC(=O)C(CC(=O)NCCc1ccc2c(c1)OCO2)c1nc(-n2ccnc2)ns1 (stereo not drawn) [Example 67, N-(2-Benzo[1,3]dioxol-5-yl-ethyl)-2-(3-imidazol-1-yl-[2,4]thiadiazol-5-yl)-succinamic acid ethyl ester] |
| < 1 µM | Cc1cc(C(C)NCCN(C)Cc2ccc3c(c2)OCO3)nc(-n2ccnc2)n1 (single isomer, unassigned) [Example 130, N-Benzo[1,3]dioxol-5-ylmethyl-N′-[1-(2-imidazol-1-yl-6-methyl-pyrimidin-4-yl)-ethyl]-N-methyl-ethane-1,2-diamine] |
| < 1 µM | Cc1cc(C2CCCN2CCNCc2ccc3c(c2)OCCO3)nc(-n2ccnc2)n1 (stereo not drawn) [Example 92, (2,3-Dihydro-benzo[1,4]dioxin-6-ylmethyl)-{2-[2-(2-imidazol-1-yl-6-methyl-pyrimidin-4-yl)-pyrrolidin-1-yl]-ethyl}-amine] |
| < 1 µM | CSc1ccc(CN(CCCNCc2ccc3c(c2)OCO3)c2nc(-n3ccnc3)ns2)cc1 [Example 104, N′-Benzo[1,3]dioxol-5-ylmethyl-N-(3-imidazol-1-yl-[1,2,4]thiadiazol-5-yl)-N-(4-methylsulfanyl-benzyl)-propane-1,3-diamine] |
| < 1 µM | Cc1cc(C(C)(C)CNC(=O)CCc2ccc3c(c2)OCO3)nc(-n2ccnc2)n1 [Example 143, 3-Benzo[1,3]dioxol-5-yl-N-[2-(2-imidazol-1-yl-6-methyl-pyrimidin-4-yl)-2-methyl-propyl]-propionamide] |
| < 1 µM | Cc1cc(C2CCCCN2CCNCc2ccc3c(c2)OCO3)nc(-n2ccnc2)n1 (stereo not drawn) [Example 142, Benzo[1,3]dioxol-5-ylmethyl-{2-[2-(2-imidazol-1-yl-6-methyl-pyrimidin-4-yl)-piperidin-1-yl]-ethyl}-amine] |
